{
  "source": "patent US10000566B2",
  "about": "“Anti-CD33 antibodies and methods for treatment of acute myeloid leukemia using the same” (IMMUNOGEN INC., priority 2002, dated 2018)",
  "key": {"large HL-60 tumors": {"test_system": "large HL-60 tumors", "assay": "Large HL-60 tumor xenograft model in SCID mice", "assay_type": "in vivo", "details": "for toxicity of higher drug doses: not shown; for effect on tumor growth: standard chemotherapeutic agents, tumor volume >400 mm^3", "procedure": "(§1) Subcutaneous tumor model—HL-60 human promyelocytic leukemia cells (5×10^6 cells in 0.1 mL) were subcutaneously inoculated into the right flank of female SCID mice. Mice were treated by intravenous injection into a lateral tail vein starting when tumors reached 100 mm^3 in size (400 mm^3 in large tumor model). Tumor size and mouse body weight were measured twice per week. Survival model—HL-60 cells (5×10^6 cells in 0.1 mL) were intravenously injected into the lateral tail vein of female SCID mice. Eleven days after tumor cell injection treatment was started. Mice were checked every day for moribund, tumor mass, or death. Body weight was measured twice per week.\nTumors were allowed to grow to a tumor volume of >400 mm^3 prior to the initiation of treatment. In addition, a comparison of the activity of My9-6-DM1 with standard chemotherapeutic drugs was conducted. […]"}, "[1]": {"test_system": "human HL-60 tumor cell xenografts", "assay": "Subcutaneous HL-60 tumor xenograft model in SCID mice", "assay_type": "in vivo", "procedure": "as §1\nThe efficacy of My9-6-DM1 in vivo was determined using SCID mice bearing human HL-60 tumor cell xenografts. HL-60 cells were injected subcutaneously and tumors were allowed to grow to an average size of 100 mm^3. Dosage is expressed as mg antibody in the conjugate, which corresponds to a DM1 dose of approximately 15 μg DM1 per mg of antibody. Tumor volume was measured as an indication of treatment efficacy and mouse body weight was monitored to indicate toxicity due to treatment."}, "[2]": {"test_system": "HL-60 cells injected intravenously", "assay": "HL-60 cell mouse survival model", "assay_type": "in vivo, SCID mice", "details": "treatment starting 11 days after cell injection", "procedure": "FIGS. 24A & B show anti-tumor efficacy of My9-6-DM1 compared with Gentuzumab ozogamicin and standard chemotherapy in an HL-60 survival model. HL-60 cells were intravenously injected into SCID mice. Indicated treatments were started 11 days following injection of cells. Treatments were i.v. daily ×5 except for Gentuzumab ozogamicin (Q4D×3).\nas §1\nWhile the efficacy of My9-6-DM1 in the tumor xenograft model is striking, it is also of interest to look at the activity of the conjugate in a mouse survival model where HL-60 cells are injected directly into a mouse tail vein. In this model, control mice die between 30 and 50 days after cell injection. […] However, even in this model, standard chemotherapy provided no significant survival enhancement (FIG. 24B)."}, "[3]": {"biological_target": "T1, CD33 on CD33-positive U-937 cells (Homo sapiens, UniProt P20138)", "T1 construct": "endogenous in cells; host or cells: U-937 human histiocytic lymphoma cell line (ATCC CRL-1953.2)", "T1 sequence (P20138 18-364)": "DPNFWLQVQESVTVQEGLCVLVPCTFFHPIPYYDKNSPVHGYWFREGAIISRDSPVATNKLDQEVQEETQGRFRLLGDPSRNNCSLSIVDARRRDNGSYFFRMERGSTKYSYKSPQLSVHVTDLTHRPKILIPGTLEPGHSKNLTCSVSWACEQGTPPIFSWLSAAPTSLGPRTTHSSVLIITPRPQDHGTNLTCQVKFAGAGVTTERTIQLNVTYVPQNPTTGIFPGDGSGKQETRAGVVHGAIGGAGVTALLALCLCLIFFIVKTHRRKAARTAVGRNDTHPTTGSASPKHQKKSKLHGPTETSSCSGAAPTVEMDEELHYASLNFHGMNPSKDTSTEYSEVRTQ", "assay": "Competition binding of 125I-labeled muMy9-6 to U-937 cells", "procedure": "The My9-6 antibody has further been functionally characterized and shown to bind with high affinity to CD33 on the surface of CD33-positive U-937 cells (FIG. 1). ^125I-labeled My9-6 binds to U-937 cells and it is competed off the cells by unlabeled My9-6 and the previously characterized anti-CD33 antibody My9 (BioGenex, cat. no. 267M).\nTo further ascertain its specificity for binding to the CD33 antigen, a competition binding experiment was performed between labeled muMy9-6 and the commercially available anti-CD33 antibody My9. The binding experiment was performed using the method described by Goldmacher et al. (1989, J. Cell. Physiol. 141, 222-234). Murine My9-6 antibody was radiolabeled with ^125I using the Iodo-gen technique (Fraker, P. J. and Speck, J. C., 1978, Biochem. Biophys. Res. Commun. 80, 849-857). A constant amount (3×10^−9 M) of ^125I-labeled muMy9-6 was mixed with increasing concentrations of non-radioactive antibody, either unlabeled muMy9-6 or unlabelled My9, and the mixtures were incubated with cells (1×10^6 cells per sample) at 4° C. for 30 min. […] The cell pellet was then removed by cutting the centrifuge tubes at the oil interface and was used to measure the cell-associated radioactivity on a gamma-counter (model RIAgamma 1274 from LKB). The cell-associated radioactivity measured was […] against the concentrations of the unlabelled, competing antibodies. […]"}, "[4]": {"details": "in vivo; cited from earlier work"}, "[5]": {"biological_target": "T2, CD33 on HL-60 membranes or whole cells (Homo sapiens, UniProt P20138)", "T2 construct": "endogenous in cells; host or cells: HL-60 human leukemic cell line (whole cells; plasma membranes prepared from HL-60)", "T2 sequence (P20138 18-364)": "as above", "assay": "Direct binding assays on HL-60 membranes and HL-60 whole cells", "procedure": "HL-60 cells were harvested from T75 flasks (NUNCLON™, cat. no. 153732), and centrifuged at about 300×g for five minutes in an Omnifuge RT tabletop centrifuge (Haereus Separations, Germany), at 4° C. The cells were resuspended at a density of 3×10^6 cells per mL in FACS buffer, comprised of 2% (v/v) goat serum (Sigma Chemical Co., St Louis, Mo.) in MEM Alpha Medium, supplemented with L-glutamine (Life Technologies, Grand Island, N.Y.). Using a multichannel pipetor, 3×10^5 cells were added to wells of a Falcon 96-well round bottom plate (cat. no. 3077) and then placed on ice. Using a Falcon 96-well flexible assay plate (cat. no. 353911), eleven twofold serial dilutions of each test or control article were prepared in duplicate in FACS buffer, from a starting concentration of 2×10^−8 M. Then, 100 μl of either test or control article was mixed with the cells. Control wells only received FACS buffer. The plate was incubated on ice for one hour, and then centrifuged for five minutes at 300× g, in a refrigerated centrifuge. Reagents were removed from the plate wells by quick inversion over a waste beaker containing 10% bleach. […] The assay plate was then analyzed on a FACScan flow cytometer interfaced with an automated 96-well sampling device (Becton Dickinson, Mountain View, Calif.). […]"}},
  "note": "“Also recorded” adds a separate entry of the source.",
  "data": [
    {"molecule": "Nc1ccn([C@@H]2O[C@H](CO)[C@@H](O)[C@@H]2O)c(=O)n1", "note": "[Ara-C]", "values": [
      {"measurement": "toxicity of higher drug doses", "setting": "large HL-60 tumors", "result": "profoundly toxic"},
      {"measurement": "effect on tumor growth", "setting": "large HL-60 tumors", "result": "little effect on tumor growth"}
    ]},
    {"molecule": "CC(=O)[C@]1(O)Cc2c(O)c3c(c(O)c2[C@@H](O[C@H]2C[C@H](N)[C@H](O)[C@H](C)O2)C1)C(=O)c1ccccc1C3=O", "note": "[idarubicin]", "values": [
      {"measurement": "toxicity of higher drug doses", "setting": "large HL-60 tumors", "result": "profoundly toxic"},
      {"measurement": "effect on tumor growth", "setting": "large HL-60 tumors", "result": "little effect on tumor growth"}
    ]},
    {"molecule": "COc1cc2cc(c1Cl)N(C)C(=O)C[C@H](OC(=O)[C@H](C)N(C)C(C)=O)[C@]1(C)O[C@H]1[C@H](C)[C@@H]1C[C@@](O)(NC(=O)O1)[C@H](OC)/C=C/C=C(\\C)C2", "note": "[maytansine, reference compound]", "values": [
      {"measurement": "mice that died two days after treatment", "setting": "[1]; 350 μg/kg daily for 5 days", "result": "Three of 6"},
      {"measurement": "delay in tumor growth", "setting": "[1]; 350 μg/kg daily for 5 days, remaining 3 mice", "result": "approximately 10 days"},
      {"measurement": "effect on survival", "setting": "[2]", "result": "significant impact on mouse survival"},
      {"measurement": "mice that died shortly after the start of treatment", "setting": "[2]", "result": "2 of 8"}
    ]},
    {"molecule": "My9-6: murine anti-CD33 monoclonal antibody, IgG1 kappa, hybridoma ATCC PTA-4786", "values": [
      {"measurement": "effect on HL-60 tumor growth compared to vehicle control", "setting": "[1]; antibody alone, dose not stated", "result": "no effect on HL-60 tumor growth"},
      {"measurement": "effect on tumor cell growth", "setting": "[1]; antibody alone, even at 50 mg/kg", "result": "no effect on tumor cell growth"},
      {"measurement": "effect on tumor growth", "setting": "[1]; unconjugated antibody 23 mg/kg daily for 5 days", "result": "no affect on tumor growth"},
      {"measurement": "effect on survival", "setting": "[2]", "result": "modest increase in survival"},
      {"measurement": "competition binding curves against 125I-labeled muMy9-6", "setting": "[3]; 3×10^−9 M 125I-muMy9-6, U-937 cells, 4° C., 30 min", "result": "very similar competition binding curves"},
      {"measurement": "binding affinity / avidity for CD33", "setting": "[3]; CD33-positive U-937 cells", "result": "very similar binding avidities; also recorded: high affinity"}
    ]},
    {"molecule": "calicheamicin", "values": [
      {"measurement": "toxicity in pre-clinical models", "setting": "[4]", "result": "hepatotoxicity"}
    ]},
    {"molecule": "V1.0: most human resurfaced version of My9-6, all ten human surface residues (antibody, V domains shown) VH: QVQLQQPGAEVVKPGASVKMSCKASGYTFTSYYIHWIKQTPGQGLEWVGVIYPGNDDISYNQKFQGKATLTADKSSTTAYMQLSSLTSEDSAVYYCAREVRLRYFDVWGQGTTVTVSS VL: EIVLTQSPGSLAVSPGERVTMSCKSSQSVFFSSSQKNYLAWYQQIPGQSPRLLIYWASTRESGVPDRFTGSGSGTDFTLTISSVQPEDLAIYYCHQYLSSRTFGQGTKLEIKR", "values": [
      {"measurement": "binding affinity relative to wild type", "setting": "[5]; HL-60 membranes and whole cells", "result": "near wild type binding affinities"},
      {"measurement": "KD value compared with murine My9-6", "setting": "[5]; HL-60 membranes or whole cells, numbers only in FIG. 17", "result": "fall within the experimental error of the KD value of murine My9-6"}
    ]}
  ]
}
